Test results: the CheMixHub ionic liquid set
Several values for one entry are separate records, joined by “and”; a condition that tells them apart may be missing. Identical values can stand only once.

Experiment: xn = mol fraction of the nth substance listed

CCCCCCCCCC[n+]1ccn(C)c1.F[B-](F)(F)F + CCCCCCCCn1cc[n+](C)c1.[Br-] + O
298.15 K, 101 kPa
Settings	electrical conductivity [S/m]
x2 = 0.0007563, x1 = 0.0001261	0.4
x2 = 0.001655, x1 = 0.0002882	0.71
x2 = 0.00196, x1 = 0.0003423	0.81
x2 = 0.002283, x1 = 0.0003963	0.87
x2 = 0.002552, x1 = 0.0004503	0.94
x2 = 0.002857, x1 = 0.0005043	0.99
x2 = 0.003126, x1 = 0.0005583	1.04
x2 = 0.003341, x1 = 0.0005943	1.09
x2 = 0.003645, x1 = 0.0006483	1.14
x2 = 0.003877, x1 = 0.0006843	1.18
x2 = 0.004253, x1 = 0.0007563	1.23
x2 = 0.004574, x1 = 0.0008102	1.28
x2 = 0.004788, x1 = 0.0008462	1.31
x2 = 0.005092, x1 = 0.0009002	1.35
x2 = 0.005359, x1 = 0.0009541	1.4
x2 = 0.005626, x1 = 0.001008	1.43

CCCC[n+]1ccn(C)c1.F[B-](F)(F)F + CN1CCCC1=O
viscosity, 101 kPa
Settings	298.15 K	303.15 K	308.15 K	313.15 K	323.15 K
x1 = 0.0115	2.02 mPa·s	1.88 mPa·s	1.52 mPa·s	1.44 mPa·s	–
x2 = 0	101 mPa·s	81 mPa·s and 84.2 mPa·s	61.5 mPa·s	51.5 mPa·s	35.5 mPa·s
x2 = 0.043	86 mPa·s	73.7 mPa·s	58.1 mPa·s	–	–
x2 = 0.0879	76.3 mPa·s	63.5 mPa·s	51.2 mPa·s	43.1 mPa·s	–
x2 = 0.0999	–	63.2 mPa·s	–	–	–
x2 = 0.2001	–	47.1 mPa·s	–	–	–
x2 = 0.2126	56.9 mPa·s	46.1 mPa·s	36.1 mPa·s	32.5 mPa·s	–
x2 = 0.3028	–	34.7 mPa·s	–	–	–
x2 = 0.388	35.2 mPa·s	25.2 mPa·s	16.5 mPa·s	14.6 mPa·s	–
x2 = 0.4	–	24.58 mPa·s	–	–	–
x2 = 0.5343	21.7 mPa·s	14.8 mPa·s	9.2 mPa·s	6.53 mPa·s	–
x2 = 0.6577	13.1 mPa·s	9.5 mPa·s	6.81 mPa·s	5.38 mPa·s	–
x2 = 0.7001	–	–	–	–	4.6 mPa·s
x2 = 0.7221	9.1 mPa·s	7.8 mPa·s	5.61 mPa·s	5.01 mPa·s	–
x2 = 0.7612	7.67 mPa·s	6.86 mPa·s	6.01 mPa·s	5.33 mPa·s	–
x2 = 0.8524	4.94 mPa·s	4.45 mPa·s	3.99 mPa·s	3.58 mPa·s	–
x2 = 0.9005	3.6 mPa·s	3.27 mPa·s	2.95 mPa·s	2.69 mPa·s	–
x2 = 0.9321	2.96 mPa·s	2.88 mPa·s	2.81 mPa·s	2.09 mPa·s	–
x2 = 0.9743	2.3 mPa·s	2.11 mPa·s	1.93 mPa·s	1.79 mPa·s	–

CCCC[n+]1ccn(C)c1.F[B-](F)(F)F + CCC(C)=O
100 kPa, x1 = 1
Settings	viscosity [mPa·s]
303.15 K	85.4
313.15 K	53.84
323.15 K	36.27
333.15 K	25.46

CCCC[n+]1ccn(C)c1.F[B-](F)(F)F + N[C@@H](Cc1c[nH]cn1)C(=O)O + O
viscosity [mPa·s], 100 kPa
Settings	293.15 K	298.15 K	303.15 K	308.15 K	313.15 K	318.15 K
x2 = 0, x1 = 0.0003603	1.03	0.917	0.835	0.751	0.693	0.638
x2 = 0, x1 = 0.0007203	1.062	0.951	0.868	0.789	0.736	0.681
x2 = 0, x1 = 0.00108	1.093	0.983	0.904	0.83	0.779	0.725

CCCC[N+]1(C)CCCC1.N#C[N-]C#N + O
100 kPa
Settings	viscosity [mPa·s]
298.15 K, x2 = 0.8348	8
318.15 K, x2 = 0.5802	9
323.15 K, x2 = 0.6452	7
333.15 K, x2 = 0.5238	7
338.15 K, x2 = 0.371	7.8
338.15 K, x2 = 0.3756	7.8
